Results taken from patent US20070189997A1, “Skin-whitening agent containing polyphenol compound” (Nichirei Foods Inc., priority 2004, published 2007).
“And” between values parts separate entries of the source, which are not always exact repeats. Equal values may be shown once.

How the values were obtained:
[1] = test system: mushroom tyrosinase; assay: Inhibition of tyrosinase activity (L-Dopa, absorbance at 475 nm), procedure of Example 3; assay type: biochemical; details: for effects of inhibiting tyrosinase activity (FIG. 1, 3, 4): 25° C., various concentrations in DMSO; for effects for inhibiting tyrosinase activity relative to kojic acid: compared with kojic acid, Table 2; for IC50: procedure of Example 3, read-out: Concentration at which 50% of tyrosinase activity is inhibited
Procedure: 1/15M phosphate buffer (70 μl, pH 6.8), 2 μl each of sample solutions of the C18-adsorbed fraction obtained in Example 1 dissolved in dimethyl sulfoxide (DMSO) at various concentrations, and 70 μl (10 U) of mushroom tyrosinase (Calzyme Laboratories) dissolved in the buffer were mixed, and the mixture was incubated at 25° C. for 10 minutes. Thereafter, 70 μl of 10 mM L-Dopa was added to initiate the reaction, the absorbance at 475 nm was assayed every 20 seconds for 2 minutes, and the inhibition (%) of tyrosinase activity was calculated using the following equation. […] Further, PVPP resin was added to the supernatant to a concentration of 1%, and the resultant was also agitated for 1.5 hours, followed by centrifugation to obtain a supernatant. […] The sample was dissolved in 1/15M phosphate buffer (pH 6.8) instead of DMSO. The polyphenol content was assayed in the same manner as in Example 1.

[2] = test system: tyrosinase; assay: Tyrosinase activity inhibition, C18-adsorbed fraction and ascorbic acid alone and combined (Example 12, absorbance at 450 nm); assay type: biochemical, mushroom
Procedure: A sample (or a combination of two types of samples) was dissolved in DMSO and diluted with DMSO at adequate concentrations.
A tyrosinase solution (70 μl, 10 U/70 μl, Calzyme Laboratories, Inc.), 70 μl of 1/15M phosphate buffer (Wako Pure Chemical Industries, Ltd.), and 4 μl each of the samples dissolved in DMSO at various concentrations were introduced into separate wells of a 96-well plate. DMSO was added to a control sample instead of a sample solution.
After the pre-incubation was carried out at 25° C. for 10 minutes, 70 μl of 10 mM L-DOPA (Wako Pure Chemical Industries, Ltd.) was added, the mixture was mixed immediately thereafter, and the absorbance at 450 nm was assayed every 20 seconds for 2 minutes. Change (slope) in the absorbance per unit time thus assayed was designated as the initial rate, and the inhibition (%) was determined by the following equation. Inhibition (%)={1−(initial ratesample/initial ratecontrol)}×100
The terms “additive effect” and “synergistic effect” are described. When tyrosinase activity inhibition (%) by the C18-adsorbed fraction alone at a concentration of A μg/ml is X (%) and tyrosinase activity inhibition (%) by ascorbic acid alone at a concentration of B μg/ml is Y (%), the case where the value Z for the tyrosinase activity inhibition (%) assayed upon the reaction of the C18-adsorbed fraction at a concentration of A μg/ml with ascorbic acid at a concentration of B μg/ml is equal to the sum of X+Y is evaluated as “C18-adsorbed fraction additively reacts with ascorbic acid.” The case where the value Z is greater than the sum of X+Y is evaluated as “C18-adsorbed fraction synergistically reacts with ascorbic acid.” When the value Z is smaller than the sum of X+Y, the C18-adsorbed fraction and ascorbic acid attenuate their effects each other.

[3] = target: mushroom tyrosinase; assay: Test of anthocyanidin compounds for inhibiting tyrosinase activity (Example 11, IC50); assay type: biochemical; details: for IC50: 25° C., L-Dopa, 475 nm
Procedure: The sample compounds were dissolved in DMSO and diluted with DMSO at adequate concentrations.
1/15M phosphate buffer (70 μl), 70 μl of a solution containing mushroom tyrosinase adjusted at 1 U/μl with a buffer, and 2 μl each of sample solutions dissolved in DMSO at various concentrations were introduced into separate wells of a 96-well plate, and these substances were thoroughly mixed, followed by incubation at 25° C. for 10 minutes.
A solution of 10 mM L-Dopa (70 μl) was added and mixed in immediately thereafter. […] The reaction was carried out at 25° C.
Change (slope) in the absorbance per unit time was designated as the initial rate, and the inhibition of tyrosinase activity (%) was determined by the following equation. Inhibition (%)={1−(initial ratesample/initial ratecontrol)}×100

[4] = test system: tyrosinase; details: cited from earlier work
[5] = in vivo; cited from earlier work

Structure (SMILES): O=C1O[C@H]([C@@H](O)CO)C(O)=C1O [Ascorbic acid, ascorbic acid]
- Inhibition of tyrosinase activity (%) ([1]; Ascorbic acid 33.3 μM): 5.49%
- Mean of tyrosinase activity inhibition (n = 3) ([2]; ascorbic acid alone 2.4 μg/ml): −1.3%
- Mean of tyrosinase activity inhibition (n = 3) ([2]; ascorbic acid alone 4.7 μg/ml): 1.0% and 1.0 ± 3.4%
- Mean of tyrosinase activity inhibition (n = 3) ([2]; ascorbic acid alone 9.4 μg/ml): 9.0% and 9.0 ± 2.9%
- Mean of tyrosinase activity inhibition (n = 3) ([2]; ascorbic acid alone 47.2 μg/ml): 95.0%
- tyrosinase inhibitory activity ([2]; ascorbic acid at a concentration up to 9.4 μg/ml): inhibitory activity was not observed very much
- tyrosinase inhibitory activity ([2]; ascorbic acid at a final concentration of 47.2 μg/ml): almost completely inhibited

Structure (SMILES): OC[C@H]1O[C@@H](Oc2cc3c(O)cc(O)cc3[o+]c2-c2ccc(O)c(O)c2)[C@H](O)[C@@H](O)[C@@H]1O [Cyanidin-3-glucoside, reference compound]
- IC50 [3]: 84 µM

Structure (SMILES): Oc1cc(O)c2cc(O)c(-c3ccc(O)c(O)c3)[o+]c2c1.[Cl-] [Cyanidin chloride]
- effects of inhibiting tyrosinase activity [3]: found to have effects of inhibiting tyrosinase activity
- IC50 [3]: 11 µM
- effects of inhibiting tyrosinase activity (Non-Patent Document 1) [4]: neither delphinidin, cyanidin, and malvidin have effects of inhibiting tyrosinase activity

Structure (SMILES): Oc1ccc(-c2[o+]c3cc(O)cc(O)c3cc2O)cc1 [Pelargonidin chloride]
- effects of inhibiting tyrosinase activity [3]: found to have effects of inhibiting tyrosinase activity
- IC50 [3]: 20 µM

Structure (SMILES): COc1cc(-c2[o+]c3cc(O)cc(O)c3cc2O)cc(OC)c1O [Malvidin chloride]
- effects of inhibiting tyrosinase activity [3]: particularly potent
- IC50 [3]: 0.4 µM
- effects of inhibiting tyrosinase activity (Non-Patent Document 1) [4]: neither delphinidin, cyanidin, and malvidin have effects of inhibiting tyrosinase activity

Structure (SMILES): CC1O[C@@H](Oc2cc3c(O)cc(O)cc3[o+]c2-c2ccc(O)cc2)[C@@H](O)C(O)[C@H]1O (some centres unmarked) [P3R, pelargonidin-3-rhamnoside]
- effects of inhibiting tyrosinase activity (FIG. 1, 3, 4) [1]: found to have effects of inhibiting tyrosinase activity
- effects for inhibiting tyrosinase activity relative to kojic acid [1]: about 6 times
- IC50 [1]: 5.7 µM
- IC50 [3]: 5.7 µM

Structure (SMILES): C[C@@H]1O[C@@H](Oc2cc3c(O)cc(O)cc3[o+]c2-c2ccc(O)c(O)c2)[C@H](O)[C@H](O)[C@H]1O.[Cl-] [C3R, cyanidin-3-rhamnoside]
- effects of inhibiting tyrosinase activity (FIG. 1, 3, 4) [1]: found to have effects of inhibiting tyrosinase activity
- effects for inhibiting tyrosinase activity relative to kojic acid [1]: equivalent to those of kojic acid
- IC50 [1]: 33 µM
- IC50 [3]: 33 µM

Structure (SMILES): Oc1cc(O)c2cc(O)c(-c3cc(O)c(O)c(O)c3)[o+]c2c1 [Delphinidin chloride]
- effects of inhibiting tyrosinase activity [3]: found to have effects of inhibiting tyrosinase activity
- IC50 [3]: 16.4 µM
- effects of inhibiting tyrosinase activity (Non-Patent Document 1) [4]: neither delphinidin, cyanidin, and malvidin have effects of inhibiting tyrosinase activity

Structure (SMILES): C[C@@H]1O[C@@H](O[C@H]2C(=O)c3c(O)cc(O)cc3O[C@@H]2c2ccc(O)c(O)c2)[C@H](O)[C@H](O)[C@H]1O [Astilbin, dehydroquercitrin]
- IC50 [3]: > 2000 µM

Structure (SMILES): O=c1cc(CO)occ1O [Kojic acid]
- potential cause of liver cancer in animal tests [5]: found to be a potential cause of liver cancer
